# From US20240190854A1, “PYRIMIDINE OR PYRIDINE DERIVATIVES USEFUL AS HCN2 MODULATORS” (King's College London, priority 2021, published 2024)
# Structures can show the parent of a compound that is named as a salt.
# How the values were obtained:
# [1] = molecular target: MDR1 (P-glycoprotein) (Homo sapiens (Human), UniProt P08183); assay: in vitro; settings: dog, MDCK-MDR1, pH 7.4
# Description: Test compounds were added (10 μM, 0.1% DMSO final, n=2) to donor compartments of the Transwell plate assembly in assay buffer (Hanks balanced salt solution supplemented with 25 mM HEPES, adjusted to pH 7.4) for both apical to basolateral (A>B) and basolateral to apical (B>A) measurements. A parallel series of incubations were performed in the presence of the transporter inhibitor elacridar (5 μM) which was added to both compartments in the transwell plate. Incubations were performed at 37° C., with samples removed from both donor and acceptor chambers at T=0 and 1 hour for recovery assessment and compound analysed by mass spectrometry (LC-MS/MS), including an analytical internal standard.
# Apparent permeability (Papp) values were determined from the relationship:
# Where V is the volume of each Transwell compartment (apical 125 μL, basolateral 600 μL), and concentrations are the relative MS responses for compound (normalized to internal standard) in the donor chamber before incubation and acceptor chamber at the end of the incubation.
# Area=area of cells exposed for drug transfer (0.33 cm2).
# Efflux ratios (Papp B>A/Papp A>B) were calculated for each compound from the mean Papp values in each direction. […] The efflux ratios were also calculated in the same way from the runs carried out in the presence of the inhibitor. The net flux is the ratio of the efflux in the absence of inhibitor to that in the presence of inhibitor.
# Lucifer Yellow (LY) was added to the apical buffer in all wells to assess viability of the cell layer.
# Compound recovery from the wells was determined from MS responses (normalized to internal standard) in donor and acceptor chambers at the end of incubation compared to response in the donor chamber pre-incubation.
# [2] = molecular target: hERG channel (Homo sapiens (Human), UniProt Q12809); assay: hERG assay using IonWorks Quattro; type: cell-based; settings: IonWorks protocol; read-out: IW hERG IC50
# Description: Example 127A, Using IonWorks Quattro
# Solutions for recording hERG currents were:
# This was followed by a […] step of is to −30 mV to evoke the hERG tail current. This sequence was repeated 5 times at a frequency of 0.25 Hz (see FIG. 3). Currents were measured from the tail step at the 5th pulse and referenced to the holding current. Compounds were then incubated for 6-7 minutes prior to a second measurement of the hERG signal using an identical pulse train.
# [3] = molecular target: HCN4 (Homo sapiens (Human), UniProt Q9Y3Q4); assay: HCN4 current assay using PatchXpress 7000A; type: cell-based; settings: PatchXpress protocol; read-out: PX HCN4 IC50
# Chain of HCN4 (Q9Y3Q4 whole entry, species assumed): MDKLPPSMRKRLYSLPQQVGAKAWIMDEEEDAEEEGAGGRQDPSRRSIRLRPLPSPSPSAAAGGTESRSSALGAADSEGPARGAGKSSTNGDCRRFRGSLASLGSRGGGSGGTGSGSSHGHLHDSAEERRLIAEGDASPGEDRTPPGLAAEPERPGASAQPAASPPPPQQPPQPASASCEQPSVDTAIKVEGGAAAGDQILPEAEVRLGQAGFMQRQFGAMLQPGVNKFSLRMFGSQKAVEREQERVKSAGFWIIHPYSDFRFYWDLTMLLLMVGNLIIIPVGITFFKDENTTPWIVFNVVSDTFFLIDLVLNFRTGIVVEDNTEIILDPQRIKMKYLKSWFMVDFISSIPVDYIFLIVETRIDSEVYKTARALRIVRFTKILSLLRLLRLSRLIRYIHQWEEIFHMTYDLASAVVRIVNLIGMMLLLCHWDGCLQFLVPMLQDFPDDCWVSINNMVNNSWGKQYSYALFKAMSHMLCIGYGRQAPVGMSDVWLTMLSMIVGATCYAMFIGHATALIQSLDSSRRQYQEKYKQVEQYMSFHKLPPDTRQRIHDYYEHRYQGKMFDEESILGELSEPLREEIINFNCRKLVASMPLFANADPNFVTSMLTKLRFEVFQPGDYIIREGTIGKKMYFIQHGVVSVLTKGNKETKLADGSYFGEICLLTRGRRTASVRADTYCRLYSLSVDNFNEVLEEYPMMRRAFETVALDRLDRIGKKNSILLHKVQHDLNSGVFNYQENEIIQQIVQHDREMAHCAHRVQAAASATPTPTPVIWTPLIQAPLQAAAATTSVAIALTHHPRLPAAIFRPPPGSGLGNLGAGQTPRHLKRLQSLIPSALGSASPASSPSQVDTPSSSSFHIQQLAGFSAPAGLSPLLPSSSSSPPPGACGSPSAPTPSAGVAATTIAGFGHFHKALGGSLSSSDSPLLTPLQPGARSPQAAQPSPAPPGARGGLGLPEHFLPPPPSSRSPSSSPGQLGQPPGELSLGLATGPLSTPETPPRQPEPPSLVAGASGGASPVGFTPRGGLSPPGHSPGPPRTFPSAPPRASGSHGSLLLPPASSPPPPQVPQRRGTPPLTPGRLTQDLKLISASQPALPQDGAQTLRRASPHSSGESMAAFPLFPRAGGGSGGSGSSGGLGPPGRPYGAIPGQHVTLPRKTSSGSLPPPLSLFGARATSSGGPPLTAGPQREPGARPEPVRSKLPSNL
# In short: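 Peak inward current taken at end of a −130 mV pulse, leak-subtracted, and normalized to the control amplitude. Cumulative concentrations applied for 7 min each at room temperature (approximately 22° C.) on an automated patch-clamp platform.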
# [4] = molecular target: HCN2 (Homo sapiens (Human), UniProt Q9UL51); assay: HCN2 current assay using PatchXpress 7000A; type: cell-based; settings: PatchXpress protocol; read-out: PX HCN2 IC50
# In short: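 Automated patch clamp (PatchXpress 7000A) at about 22° C. HCN current taken as leak-subtracted peak inward current at the end of a step to −110 mV, with a return to −30 mV for 8 seconds. Cumulative concentrations applied 7 minutes each; amplitude normalised to control.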
# [5] = molecular target: hNav1.5 (Homo sapiens (Human), UniProt Q14524)
# Chain of hNav1.5 (Q14524 whole entry): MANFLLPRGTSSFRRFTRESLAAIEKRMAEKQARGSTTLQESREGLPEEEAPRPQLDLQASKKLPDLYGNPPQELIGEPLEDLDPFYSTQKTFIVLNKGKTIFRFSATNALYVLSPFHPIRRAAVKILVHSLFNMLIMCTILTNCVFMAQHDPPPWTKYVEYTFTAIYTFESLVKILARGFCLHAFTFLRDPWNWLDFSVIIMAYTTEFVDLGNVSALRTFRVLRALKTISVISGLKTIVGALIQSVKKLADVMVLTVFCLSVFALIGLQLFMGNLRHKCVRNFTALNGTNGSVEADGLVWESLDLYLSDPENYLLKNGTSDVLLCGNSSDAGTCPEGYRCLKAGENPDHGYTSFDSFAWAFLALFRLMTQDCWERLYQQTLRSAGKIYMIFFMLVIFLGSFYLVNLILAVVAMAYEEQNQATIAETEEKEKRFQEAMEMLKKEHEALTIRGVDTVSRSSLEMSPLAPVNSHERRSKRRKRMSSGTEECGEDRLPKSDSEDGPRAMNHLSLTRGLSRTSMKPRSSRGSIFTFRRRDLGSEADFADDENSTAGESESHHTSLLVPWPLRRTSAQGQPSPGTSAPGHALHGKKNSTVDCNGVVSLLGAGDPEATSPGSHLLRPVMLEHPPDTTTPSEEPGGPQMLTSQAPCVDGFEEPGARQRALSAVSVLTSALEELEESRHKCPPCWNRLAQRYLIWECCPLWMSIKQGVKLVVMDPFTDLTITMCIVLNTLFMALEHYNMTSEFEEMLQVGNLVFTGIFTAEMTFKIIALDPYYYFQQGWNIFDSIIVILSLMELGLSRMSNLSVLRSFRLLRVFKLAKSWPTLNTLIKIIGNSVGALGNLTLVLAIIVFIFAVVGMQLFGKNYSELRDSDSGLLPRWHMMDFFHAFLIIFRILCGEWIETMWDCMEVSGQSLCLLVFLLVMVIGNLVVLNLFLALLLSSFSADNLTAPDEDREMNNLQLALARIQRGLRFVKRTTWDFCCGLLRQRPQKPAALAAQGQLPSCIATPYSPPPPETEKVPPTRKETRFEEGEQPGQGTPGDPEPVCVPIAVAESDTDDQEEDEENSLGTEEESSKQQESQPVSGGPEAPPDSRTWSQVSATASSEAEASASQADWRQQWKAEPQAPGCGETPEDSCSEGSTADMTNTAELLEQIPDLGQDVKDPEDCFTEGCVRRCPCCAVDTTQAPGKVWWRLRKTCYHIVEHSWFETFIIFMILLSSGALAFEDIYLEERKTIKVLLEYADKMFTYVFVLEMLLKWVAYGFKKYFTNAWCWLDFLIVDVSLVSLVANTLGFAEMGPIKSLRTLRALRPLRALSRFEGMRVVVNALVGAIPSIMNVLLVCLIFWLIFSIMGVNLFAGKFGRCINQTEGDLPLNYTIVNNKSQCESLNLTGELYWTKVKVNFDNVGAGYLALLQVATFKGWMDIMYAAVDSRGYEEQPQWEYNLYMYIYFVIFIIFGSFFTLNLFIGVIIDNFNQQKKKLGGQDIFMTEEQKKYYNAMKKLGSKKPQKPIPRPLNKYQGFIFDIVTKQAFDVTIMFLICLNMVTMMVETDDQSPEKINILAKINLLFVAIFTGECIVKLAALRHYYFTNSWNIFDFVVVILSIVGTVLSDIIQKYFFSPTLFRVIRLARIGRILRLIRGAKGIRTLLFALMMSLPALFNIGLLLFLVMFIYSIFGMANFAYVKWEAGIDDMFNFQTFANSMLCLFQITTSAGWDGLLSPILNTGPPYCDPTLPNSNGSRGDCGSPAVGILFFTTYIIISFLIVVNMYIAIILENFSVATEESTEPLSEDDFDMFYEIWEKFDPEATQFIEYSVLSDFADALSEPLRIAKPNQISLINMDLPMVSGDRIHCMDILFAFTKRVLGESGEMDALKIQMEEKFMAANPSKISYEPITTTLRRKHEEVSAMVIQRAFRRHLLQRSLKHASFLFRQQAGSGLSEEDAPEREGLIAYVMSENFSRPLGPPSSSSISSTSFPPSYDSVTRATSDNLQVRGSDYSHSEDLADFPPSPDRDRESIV
# Chain of MDR1 (P-glycoprotein) (P08183 whole entry): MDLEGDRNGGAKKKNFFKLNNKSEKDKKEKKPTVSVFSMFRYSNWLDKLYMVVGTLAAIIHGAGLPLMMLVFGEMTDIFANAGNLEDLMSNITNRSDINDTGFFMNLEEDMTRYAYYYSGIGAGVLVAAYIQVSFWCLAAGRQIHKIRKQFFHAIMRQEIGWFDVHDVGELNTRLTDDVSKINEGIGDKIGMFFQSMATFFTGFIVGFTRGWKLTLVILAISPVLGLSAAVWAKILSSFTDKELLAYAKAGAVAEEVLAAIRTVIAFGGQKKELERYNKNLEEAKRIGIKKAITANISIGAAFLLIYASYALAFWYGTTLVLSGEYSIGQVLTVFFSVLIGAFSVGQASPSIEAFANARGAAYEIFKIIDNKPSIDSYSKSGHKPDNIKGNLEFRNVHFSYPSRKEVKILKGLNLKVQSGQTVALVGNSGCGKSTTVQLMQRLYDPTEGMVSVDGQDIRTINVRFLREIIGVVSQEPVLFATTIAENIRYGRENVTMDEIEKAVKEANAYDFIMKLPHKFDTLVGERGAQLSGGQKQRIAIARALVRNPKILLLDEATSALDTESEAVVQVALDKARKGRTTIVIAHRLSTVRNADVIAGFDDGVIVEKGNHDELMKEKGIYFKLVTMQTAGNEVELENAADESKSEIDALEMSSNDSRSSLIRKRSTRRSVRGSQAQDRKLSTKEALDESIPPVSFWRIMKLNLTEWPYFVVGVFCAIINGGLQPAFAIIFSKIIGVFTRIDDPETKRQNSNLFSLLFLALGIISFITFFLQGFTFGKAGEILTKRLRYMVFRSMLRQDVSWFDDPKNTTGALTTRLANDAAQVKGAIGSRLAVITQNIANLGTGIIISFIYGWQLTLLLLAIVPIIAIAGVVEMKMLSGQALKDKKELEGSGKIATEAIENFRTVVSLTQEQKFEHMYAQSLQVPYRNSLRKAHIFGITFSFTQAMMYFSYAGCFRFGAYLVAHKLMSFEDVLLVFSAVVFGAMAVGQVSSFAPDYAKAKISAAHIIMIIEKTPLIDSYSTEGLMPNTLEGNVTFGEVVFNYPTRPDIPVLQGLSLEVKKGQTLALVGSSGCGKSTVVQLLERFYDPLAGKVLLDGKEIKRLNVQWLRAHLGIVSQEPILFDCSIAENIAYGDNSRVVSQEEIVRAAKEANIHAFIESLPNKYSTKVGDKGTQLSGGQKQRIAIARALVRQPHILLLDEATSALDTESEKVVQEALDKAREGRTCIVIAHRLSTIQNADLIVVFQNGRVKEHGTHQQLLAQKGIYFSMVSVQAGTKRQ
SMILES,IC50 [3],IC50 [4],"efflux ratio at 1 h, 10 μM [1]",IC50 [2],IC50 [5]
"Cc1ccc(-c2noc3ccccc23)c([C@@H](N)Cc2ccccn2)c1 [Example 36, (S)-1-[2-(Benzo[d]isoxazol-3-yl)-5-methylphenyl]-2-(pyridine-2-yl)ethan-1-amine hydrochloride]",> 30 µM,1.2 µM,0.8,5 µM,5.6 µM
"N[C@@H](Cc1ccccn1)c1ccccc1-c1noc2ccccc12 [Example 42, (S)-1-[2-(Benzo[d]isoxazol-3-yl)phenyl]-2-(pyridine-2-yl)ethan-1-amine hydrochloride]",> 30 µM,1.1 µM,1.5,3.8 µM,6.9 µM
"CC(C)C(c1ccccn1)[C@H](N)c1ccccc1-c1noc2ccccc12 (stereo partly drawn) [Example 48, (S)-1-[2-(Benzo[d]isoxazol-3-yl)phenyl]-3-methyl-2-(pyridine-2-yl)butan-1-amine hydrochloride]",> 30 µM,5.4 µM,–,16 µM,5.3 µM
"CC(C)(c1ccccn1)[C@H](N)c1ccccc1-c1noc2ccccc12 [Example 49, (R)-1-[2-(Benzo[d]isoxazol-3-yl)phenyl]-2-methyl-2-(pyridine-2-yl)propane-1-amine hydrochloride]",22.6 µM,6.5 µM,–,5.2 µM,3.8 µM
"COCCNc1cccc(C[C@H](N)c2ccccc2-c2noc3ccccc23)n1 [Example 52, (S)-6-{2-Amino-2-[2-(benzo[d]isoxazol-3-yl)phenyl]ethyl}-N-(2-methoxyethyl)pyridin-2-amine hydrochloride]",6 µM,1.6 µM,–,1.2 µM,1.6 µM
"N#Cc1cccnc1C[C@H](N)c1ccccc1-c1noc2ccccc12 [Example 75, (S)-1-[2-(Benzo[d]isoxazol-3-yl)phenyl]-2-(3-cyanopyridin-2-yl)ethan-1-amine]",6.6 µM,1.2 µM,–,1.5 µM,6.6 µM
"Cc1cccc(-c2noc3ccccc23)c1[C@@H](N)Cc1ccccn1 [Example 84, (S)-1-[2-(Benzo[d]isoxazol-3-yl)-6-methylphenyl]-2-(pyridine-2-yl)ethan-1-amine hydrochloride]",27 µM,0.9 µM,0.8,3 µM,5.7 µM
"Cc1ccc(C[C@H](N)c2ccccc2-c2noc3ccccc23)nc1 [Example 92, (S)-1-[2-(Benzo[d]isoxazol-3-yl)phenyl]-2-(5-methylpyridine-2-yl)ethan-1-amine hydrochloride]",> 30 µM,1.9 µM,–,6.4 µM,1.4 µM
"CCc1cccc(C[C@H](N)c2ccccc2-c2noc3ccccc23)n1 [Example 101, (S)-1-[2-(Benzo[d]isoxazol-3-yl)phenyl]-2-(6-ethylpyridine-2-yl)ethan-1-amine hydrochloride]",13.1 µM,0.7 µM,–,2.8 µM,1.6 µM
"CN(C)C(=O)CCc1cccc(C[C@H](N)c2ccccc2-c2noc3ccccc23)n1 [Example 109, (S)-3-(6-{2-Amino-2-[2-(benzo[d]isoxazol-3-yl)phenyl]ethyl}pyridine-2-yl)-N,N-dimethylpropanamide hydrochloride]",> 30 µM,2.4 µM,–,4.3 µM,3.2 µM
"N[C@@H](Cc1cc(Br)ccn1)c1ccccc1-c1noc2ccccc12 [Example 117, (S)-1-[2-(Benzo[d]isoxazol-3-yl)phenyl]-2-(4-bromopyridine-2-yl)ethan-1-amine hydrochloride)]",12.2 µM,1.4 µM,–,2.2 µM,2.7 µM

# Now from value to molecule, other results behind:
IC50 [3],IC50 [4],SMILES,"efflux ratio at 1 h, 10 μM [1]",IC50 [2],IC50 [5]
> 30 µM,4 µM,"COCc1ccc2c(-c3ccccc3[C@@H](N)Cc3ccccn3)noc2c1 [Example 39, (S)-1-[2-(6-Methoxymethylbenzo[d]isoxazol-3-yl)phenyl]-2-(pyridine-2-yl)ethan-1-amine]",2.7,7.6 µM,27.3 µM
> 30 µM,3 µM,"CC[C@@H](c1ccccn1)[C@H](N)c1ccccc1-c1noc2ccccc12 [Example 46, (1S,2R)-1-[2-(benzo[d]isoxazol-3-yl)phenyl]-2-(pyridin-2-yl)butan-1-amine hydrochloride]",–,8.2 µM,1.3 µM
> 30 µM,0.6 µM,"Cc1cccnc1C[C@H](N)c1ccccc1-c1noc2ccccc12 [Example 47, (S)-1-[2-(Benzo[d]isoxazol-3-yl)phenyl]-2-(3-methylpyridine-2-yl)ethan-1-amine hydrochloride]",–,2.8 µM,5.8 µM
30 µM,1.2 µM,"N[C@@H](Cc1ncccn1)c1ccccc1-c1noc2ccccc12 [Example 56, (S)-1-[2-(Benzo[d]isoxazol-3-yl)phenyl]-2-(pyrimidine-2-yl)ethan-1-amine]",2.5,14.4 µM,7 µM
> 30 µM,3.5 µM,"Cc1cccc(C[C@H](N)c2ccccc2-c2nn(C)c3ccccc23)n1 [Example 61, (S)-1-[2-(1-Methyl-1H-indazole-3-yl)phenyl]-2-(6-methylpyridine-2-yl)ethan-1-amine hydrochloride]",–,0.46 µM,6.7 µM
19.2 µM,0.7 µM,"N[C@@H](Cc1cccc(C(F)(F)F)n1)c1ccccc1-c1noc2ccccc12 [Example 62, (S)-1-[2-(Benzo[d]isoxazol-3-yl)phenyl]-2-(6-trifluoromethylpyridin-2-yl)ethan-1-amine hydrochloride]",–,3.2 µM,3.8 µM
19.5 µM,1.3 µM,"CC(C)n1nc(-c2ccccc2[C@@H](N)Cc2cccc(C#N)n2)c2ccccc21 [Example 67, (S)-2-(6-Cyanopyridine-2-yl)-1-[2-(1-isopropyl-1H-indazole-3-yl)phenyl]ethan-1-amine]",–,3.7 µM,9.5 µM
10.4 µM,0.9 µM,"N[C@@H](Cc1nc(CCO)ccc1F)c1ccccc1-c1noc2ccccc12 [Example 77, (S)-2-(6-{2-Amino-2-(2-benzo[d]isoxazol-3-yl)phenyl]ethyl}-5-fluoropyridin-2-yl)ethan-1-ol hydrochloride]",–,> 33 µM,6.5 µM
7.1 µM,2.9 µM,"Cn1cc(-c2cccc(C[C@H](N)c3ccccc3-c3noc4ccccc34)n2)cn1 [Example 90, (S)-1-[2-(Benzo[d]isoxazol-3-yl)phenyl]-2-[6-(1-methyl-1H-pyrazol-4-yl)pyridine-2-yl]ethan-1-amine hydrochloride]",–,4.1 µM,10.6 µM
> 30 µM,1.8 µM,"N#Cc1ccc(C[C@H](N)c2ccccc2-c2noc3ccccc23)nc1 [Example 93, (S)-1-[2-(Benzo[d]isoxazol-3-yl)phenyl]-2-(5-cyanopyridine-2-yl)ethan-1-amine hydrochloride]",–,7.5 µM,2.2 µM
4.2 µM,2 µM,"Cc1cccc(C[C@H](N)c2c(F)cccc2-c2noc3ccccc23)n1 [Example 112, (S)-1-[2-(Benzo[d]isoxazol-3-yl)-6-fluorophenyl]-2-(6-methylpyridin-2-yl)ethan-1-amine hydrochloride]",–,10.2 µM,24.2 µM
5.2 µM,1.7 µM,"N[C@@H](Cc1cccc(-c2ncco2)n1)c1ccccc1-c1noc2ccccc12 [Example 118, (S)-1-[2-(Benzo[d]isoxazol-3-yl)phenyl]-2-[6-(oxazol-2-yl)pyridine-2-yl]ethan-1-amine hydrochloride]",–,3.1 µM,7.8 µM
2.1 µM,0.8 µM,"N[C@@H](Cc1cccc(N2CCCC2)n1)c1ccccc1-c1noc2ccccc12 [Example 119, (S)-1-[2-(Benzo[d]isoxazol-3-yl)phenyl]-2-[6-(pyrrolidin-1-yl)pyridine-2-yl]ethan-1-amine hydrochloride]",–,1.3 µM,3.3 µM
> 30 µM,1.3 µM,"Nc1cccc(C[C@H](N)c2ccccc2-c2noc3ccccc23)n1 [Example 121, (S)-6-{2-Amino-2-[2-(benzo[d]isoxazol-3-yl)phenyl]ethyl}pyridine-2-amine hydrochloride]",–,8.6 µM,1.6 µM
> 30 µM,2.1 µM,"COC(=O)Nc1cccc(C[C@H](N)c2ccccc2-c2noc3ccccc23)n1 [Example 124, Methyl (S)-(6-{2-Amino-2-[2-(benzo[d]isoxazol-3-yl)phenyl]ethyl}pyridine-2-yl)carbamate hydrochloride]",–,2.3 µM,1.3 µM
